In PubChem BioAssay (NCI):
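Briefly, cells in 96-well plates were exposed to five compound concentrations for 48 h, and endpoints were estimated by linear interpolation. At the GI50, growth is halved. TGI: concentration producing complete growth inhibition.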

Legend:
Test in all cases: NCI-60 cell line screen, 48 h
HCT-15 colon = test system: HCT-15 colon
OVCAR-3 ovarian = test system: OVCAR-3 ovarian
UACC-257 melanoma = test system: UACC-257 melanoma
M14 melanoma = test system: M14 melanoma
SK-MEL-28 melanoma = test system: SK-MEL-28 melanoma
DU-145 prostate = test system: DU-145 prostate
LOX IMVI melanoma = test system: LOX IMVI melanoma
NCI-H522 lung = test system: NCI-H522 lung
A498 renal = test system: A498 renal
SF-268 CNS = test system: SF-268 CNS
NCI/ADR-RES ovarian = test system: NCI/ADR-RES ovarian
HL-60(TB) leukemia = test system: HL-60(TB) leukemia
U251 CNS = test system: U251 CNS
OVCAR-8 ovarian = test system: OVCAR-8 ovarian
T-47D breast = test system: T-47D breast
IGROV1 ovarian = test system: IGROV1 ovarian
HCC-2998 colon = test system: HCC-2998 colon
SW-620 colon = test system: SW-620 colon
MDA-MB-468 breast = test system: MDA-MB-468 breast
HOP-62 NSCLC = test system: HOP-62 NSCLC
786-0 renal = test system: 786-0 renal
MCF7 breast = test system: MCF7 breast
BT-549 breast = test system: BT-549 breast
OVCAR-5 ovarian = test system: OVCAR-5 ovarian
MDA-MB-231 breast = test system: MDA-MB-231 breast
SNB-75 CNS = test system: SNB-75 CNS
SF-539 CNS = test system: SF-539 CNS
COLO 205 colon = test system: COLO 205 colon
SF-295 CNS = test system: SF-295 CNS
SK-MEL-5 melanoma = test system: SK-MEL-5 melanoma
SK-MEL-2 melanoma = test system: SK-MEL-2 melanoma
NCI-H226 lung = test system: NCI-H226 lung
MDA-MB-435 = test system: MDA-MB-435
RXF 393 renal = test system: RXF 393 renal
A549 NSCLC = test system: A549 NSCLC
RPMI-8226 leukemia = test system: RPMI-8226 leukemia
NCI-H23 lung = test system: NCI-H23 lung
K-562 leukemia = test system: K-562 leukemia
MOLT-4 leukemia = test system: MOLT-4 leukemia
EKVX NSCLC = test system: EKVX NSCLC
NCI-H460 lung = test system: NCI-H460 lung
SNB-19 CNS = test system: SNB-19 CNS
CCRF-CEM leukemia = test system: CCRF-CEM leukemia
CAKI-1 renal = test system: CAKI-1 renal
HOP-92 NSCLC = test system: HOP-92 NSCLC
SK-OV-3 ovarian = test system: SK-OV-3 ovarian
UACC-62 melanoma = test system: UACC-62 melanoma
SN12C renal = test system: SN12C renal
PC-3 prostate = test system: PC-3 prostate
HT29 colon = test system: HT29 colon
MALME-3M melanoma = test system: MALME-3M melanoma
HS 578T breast = test system: HS 578T breast
KM12 colon = test system: KM12 colon
OVCAR-4 ovarian = test system: OVCAR-4 ovarian

`CCCSc1nc(Nc2ccc(S(N)(=O)=O)cc2)c(C#N)c(-c2ccc(Cl)cc2)n1` gave a GI50 (HCT-15 colon) of 2.92 µM, a TGI (HCT-15 colon) greater than 100 µM and a GI50 (OVCAR-3 ovarian) of 3.63 µM. It also gave a TGI (OVCAR-3 ovarian) of 19.6 µM, a GI50 (UACC-257 melanoma) of 28.5 µM and a TGI (UACC-257 melanoma) greater than 100 µM. For the same compound, the GI50 (M14 melanoma) was 3.48 µM, the TGI (M14 melanoma) was 25.3 µM and the GI50 (SK-MEL-28 melanoma) was 36.1 µM. The TGI (SK-MEL-28 melanoma) was greater than 100 µM, the GI50 (DU-145 prostate) was 12.2 µM and the TGI (DU-145 prostate) was 97.1 µM. For the same compound, the GI50 (LOX IMVI melanoma) was 1.82 µM, the TGI (LOX IMVI melanoma) was 3.55 µM and the GI50 (NCI-H522 lung) was 16.4 µM. It also gave a TGI (NCI-H522 lung) greater than 100 µM, a GI50 (A498 renal) of 1.78 µM and a TGI (A498 renal) of 4.31 µM. The GI50 (SF-268 CNS) was 9 µM, the TGI (SF-268 CNS) was greater than 100 µM and the GI50 (NCI/ADR-RES ovarian) was 4.89 µM. The TGI (NCI/ADR-RES ovarian) was 90.5 µM, the GI50 (HL-60(TB) leukemia) was greater than 100 µM and the TGI (HL-60(TB) leukemia) was greater than 100 µM. For the same compound, the GI50 (U251 CNS) was 2.42 µM, the TGI (U251 CNS) was 7.81 µM and the GI50 (OVCAR-8 ovarian) was 3.42 µM. For the same compound, the TGI (OVCAR-8 ovarian) was 16.1 µM, the GI50 (T-47D breast) was greater than 100 µM and the TGI (T-47D breast) was greater than 100 µM. It also gave a GI50 (IGROV1 ovarian) of 6.03 µM, a TGI (IGROV1 ovarian) greater than 100 µM and a GI50 (HCC-2998 colon) of 4.2 µM. The TGI (HCC-2998 colon) was greater than 100 µM, the GI50 (SW-620 colon) was 4.67 µM and the TGI (SW-620 colon) was 29.6 µM. It also gave a GI50 (MDA-MB-468 breast) of 4.49 µM, a TGI (MDA-MB-468 breast) of 37.1 µM and a GI50 (HOP-62 NSCLC) of 2.35 µM. For the same compound, the TGI (HOP-62 NSCLC) was 5.67 µM, the GI50 (786-0 renal) was 1.98 µM and the TGI (786-0 renal) was 4.06 µM. The GI50 (MCF7 breast) was 24.3 µM, the TGI (MCF7 breast) was greater than 100 µM and the GI50 (BT-549 breast) was 30.8 µM. For the same compound, the TGI (BT-549 breast) was greater than 100 µM, the GI50 (OVCAR-5 ovarian) was 8.78 µM and the TGI (OVCAR-5 ovarian) was greater than 100 µM. For the same compound, the GI50 (MDA-MB-231 breast) was 2.83 µM, the TGI (MDA-MB-231 breast) was 8.9 µM and the GI50 (SNB-75 CNS) was 2.03 µM. The TGI (SNB-75 CNS) was 9.63 µM, the GI50 (SF-539 CNS) was 2.57 µM and the TGI (SF-539 CNS) was 10 µM. For the same compound, the GI50 (COLO 205 colon) was 9.54 µM, the TGI (COLO 205 colon) was greater than 100 µM and the GI50 (SF-295 CNS) was 2.1 µM. It also gave a TGI (SF-295 CNS) of 4.94 µM, a GI50 (SK-MEL-5 melanoma) of 6.96 µM and a TGI (SK-MEL-5 melanoma) greater than 100 µM. It also gave a GI50 (SK-MEL-2 melanoma) of 13.8 µM, a TGI (SK-MEL-2 melanoma) greater than 100 µM and a GI50 (NCI-H226 lung) of 2.6 µM. It also gave a TGI (NCI-H226 lung) of 8.66 µM, a GI50 (MDA-MB-435) of 7.9 µM and a TGI (MDA-MB-435) greater than 100 µM. It also gave a GI50 (RXF 393 renal) of 2 µM, a TGI (RXF 393 renal) of 4.63 µM and a GI50 (A549 NSCLC) of 3.62 µM. For the same compound, the TGI (A549 NSCLC) was greater than 100 µM, the GI50 (RPMI-8226 leukemia) was 3.14 µM and the TGI (RPMI-8226 leukemia) was greater than 100 µM. For the same compound, the GI50 (NCI-H23 lung) was 9.53 µM, the TGI (NCI-H23 lung) was 43 µM and the GI50 (K-562 leukemia) was 2.85 µM. It also gave a TGI (K-562 leukemia) greater than 100 µM, a GI50 (MOLT-4 leukemia) of 8.11 µM and a TGI (MOLT-4 leukemia) greater than 100 µM. The GI50 (EKVX NSCLC) was 9.38 µM, the TGI (EKVX NSCLC) was greater than 100 µM and the GI50 (NCI-H460 lung) was 3.85 µM. The TGI (NCI-H460 lung) was 22.4 µM, the GI50 (SNB-19 CNS) was 4.04 µM and the TGI (SNB-19 CNS) was 20.9 µM. It also gave a GI50 (CCRF-CEM leukemia) greater than 100 µM, a TGI (CCRF-CEM leukemia) greater than 100 µM and a GI50 (CAKI-1 renal) of 1.94 µM. For the same compound, the TGI (CAKI-1 renal) was 4.8 µM, the GI50 (HOP-92 NSCLC) was 1.39 µM and the TGI (HOP-92 NSCLC) was 3.73 µM. The GI50 (SK-OV-3 ovarian) was 4.11 µM, the TGI (SK-OV-3 ovarian) was 67.6 µM and the GI50 (UACC-62 melanoma) was 5.11 µM. For the same compound, the TGI (UACC-62 melanoma) was greater than 100 µM, the GI50 (SN12C renal) was 2.39 µM and the TGI (SN12C renal) was 7.5 µM. For the same compound, the GI50 (PC-3 prostate) was 13.4 µM, the TGI (PC-3 prostate) was greater than 100 µM and the GI50 (HT29 colon) was 6.41 µM. For the same compound, the TGI (HT29 colon) was greater than 100 µM, the GI50 (MALME-3M melanoma) was 3.07 µM and the TGI (MALME-3M melanoma) was 17.9 µM. For the same compound, the GI50 (HS 578T breast) was 2.59 µM, the TGI (HS 578T breast) was 8.09 µM and the GI50 (KM12 colon) was 4.17 µM. For the same compound, the TGI (KM12 colon) was greater than 100 µM, the GI50 (OVCAR-4 ovarian) was 2.23 µM and the TGI (OVCAR-4 ovarian) was 5.65 µM.
